Measurements from patent publication US20260185169A1, “MOLECULAR SIGNATURES TO PREDICT LONG-TERM LIVER FIBROSIS PROGRESSION” (THE BOARD OF REGENTS OF THE UNIVERSITY OF TEXAS SYSTEM, priority 2022, published 2026).

System: FPS and molecular pathways
Test: Modulation of FPS and molecular pathways in hepatic transcriptome (RNA-Seq, CES/GSEI) in CENTAUR trial biopsies
Assay type: in vivo, human
Settings: for modulation of FPS genes: cenicriviroc arm
Description: Archived formalin-fixed liver tissues from index biopsy were used for histological assessment in all patients (FIG. 1 and Table 1A-11) to confirm no to minimal fibrosis (METAVIR fibrosis stage F0 or F1). The PLS validation set 1 (and FPS derivation set 1) is a case-control series of 43 chronic hepatitis C patients from a prior cohort study consecutively diagnosed and followed at Johns Hopkins and Massachusetts General Hospital between 1998 and 2010. Twenty-five patients were co-infected with HIV and on anti-retroviral therapies. The patients were regularly followed up with ultrasound elastography at median interval of 1.1 (IQR: 0.6-2.0) years. Liver stiffness measurement >7.0 and >9.5 kPa were regarded as indication of F2 and F3 fibrosis, respectively. The PLS validation set 2 (and FPS derivation set 2) is a case-control series of 38 patients who consecutively underwent liver transplantation for HCV-related cirrhosis and protocol liver biopsies at year 1, 2, and 5 after transplantation (and additional biopsies as needed to evaluate graft rejection, which were excluded) at Baylor University between 2002 and 2007. Median number of biopsies was 8 (IQR: 6-9) per patient with median interval between serial biopsies of 8.6 (IQR: 0.3-12.6) months. […] The FPS derivation set 3 is a cross-sectional series of 31 NAFLD patients who underwent diagnostic liver biopsy at Hiroshima University between 2003 and 2015. The FPS derivation set 4 is a cross-sectional series of 309 NAFLD patients who underwent diagnostic liver biopsy (F0 or F1 fibrosis) at Massachusetts General Hospital between 2009 and 2016. […] The cases were defined as patients who had F-stage increase of one stage or more in the follow-up biopsy. The FPS validation set 2 includes 78 patients with fibrotic liver diseases from various etiologies, for which de-identified fresh liver tissues were available from standard-care hepatic resection for organotypic ex vivo tissue culture at University of Texas Southwestern and Mount Sinai. The FPS validation set 3 consists of NASH patients with F1-F3 fibrosis who underwent liver biopsy before and after 1-year treatment with cenicriviroc (n=9) or placebo (n=10) in the phase Ilb CENTAUR trial (NCT02217475). Decrease of one or more fibrosis stage was regarded as anti-fibrotic response. The serum surrogate FPS was assessed in archived de-identified serum samples from 79 patients with chronic liver diseases. The FPSec validation set is a cohort of 122 patients with compensated (Child-Pugh class A) cirrhosis patients with mixed etiologies enrolled at University of Michigan between 2004 and 2006 as reported in our previous study. Hepatic decompensation was defined as newly developed massive ascites, hepatic encephalopathy, bleeding from gastroesophageal varices, or liver transplantation. The study was approved by institutional review board at respective institutions with written informed consent or exemption for use of archived de-identified samples (protocol numbers: STU062018-058, STU072018-071, 2010P000220/PHS, HS13-00159).
Total RNA was isolated from fixed tissue sections by using High Pure RNA Paraffin kit (Roche), and assessed for quality by qRT-PCR of RPL13A. Total RNA from the PCLS tissues was isolated using RNeasy kit (Qiagen). RNA samples (100-200 ng) were subjected to the PLS/FPS assay implemented in the nCounter platform (NanoString), and transcriptome profiling of the CENTAUR trial samples was performed by RNA-Seq (TrueSeq RNA Access, Illumina). Expression of BCL2, COL1A1, and ACTA2 genes was measured by qRT-PCR (Table 3). Serum protein profiling was performed by using xMAP assay (Luminex). […]

[1] = Fibrosis not improved, NASH patients, Hallmark set, Cellular signaling
[2] = Fibrosis not improved, NASH patients, Hallmark set, Inflammatory response, immunity
[3] = Fibrosis not improved, NASH patients, Hallmark set, Metabolism, biosynthesis
[4] = Fibrosis not improved, NASH patients, Hallmark set, Pathogenic response
[5] = Fibrosis not improved, NASH patients, Hallmark set, Sex hormone signaling
[6] = Fibrosis not improved, NASH patients, Hallmark set, Stress response
[7] = Fibrosis not improved, NASH patients, Immune cell signature (GSE65136)
[8] = Fibrosis not improved, NASH patients, Nuclear receptor signaling (curated pathway members)
[9] = Fibrosis not improved, NASH patients, PPAR agonists on mouse primary hepatocytes (GSE27948)

CCCCOCCOc1ccc(-c2ccc3c(c2)/C=C(/C(=O)Nc2ccc([S@@+]([O-])Cc4cncn4CCC)cc2)CCCN3CC(C)C)cc1 [Cenicriviroc]
NES, Mitotic spindle gene set (Fibrosis not improved, NASH patients, Hallmark set, Cell cycle, DNA damage, response): 0.82
NES, Apoptosis gene set (Fibrosis not improved, NASH patients, Hallmark set, Cell death): 1.38
NES, E2F targets gene set [1]: 1.88
NES, Hedgehog signaling gene set [1]: 1.05
NES, KRAS signaling gene set [1]: 1.63
NES, Myc targets v1 gene set [1]: 2.19
NES, Myc targets v2 gene set [1]: 1.55
NES, Notch signaling gene set [1]: 0.84
NES, PI3K/AKT/mTOR signaling gene set [1]: 1.43
NES, TGFβ signaling gene set [1]: −0.70
NES, TNFα signaling via NF-κB gene set [1]: 0.96
NES, Wnt/β-catenin signaling gene set [1]: 0.87
NES, mTORC1 signaling gene set [1]: 1.93
NES, p53 pathway gene set [1]: 1.03
NES, Allograft rejection gene set [2]: 2.25
NES, IL2 STAT5 signaling gene set [2]: 1.70
NES, IL6 JAK STAT3 signaling gene set [2]: 1.82
NES, Inflammatory response gene set [2]: 1.61
NES, Interferon-α response gene set [2]: 0.83
NES, Interferon-γ response gene set [2]: 1.39
NES, Adipogenesis gene set [3]: −0.72
NES, Bile acid metabolism gene set [3]: −1.36
NES, Cholesterol homeostasis gene set [3]: 0.99
NES, Coagulation gene set [3]: 1.33
NES, Complement gene set [3]: 1.37
NES, Fatty acid metabolism gene set [3]: 0.73
NES, Glycolysis gene set [3]: 1.43
NES, Heme metabolism gene set [3]: −0.95
NES, Oxidative phosphorylation gene set [3]: 1.16
NES, Peroxisome gene set [3]: −1.03
NES, Protein secretion gene set [3]: 1.30
NES, Xenobiotic metabolism gene set [3]: 0.79
NES, Angiogenesis gene set [4]: 1.64
NES, Epithelial mesenchymal transition gene set [4]: 1.98
NES, Androgen response gene set [5]: 1.63
NES, Estrogen response early gene set [5]: 1.07
NES, Estrogen response late gene set [5]: 1.18
NES, Hypoxia gene set [6]: 1.67
NES, Myogenesis gene set [6]: 1.73
NES, Reactive oxygen species gene set [6]: 1.24
NES, UV response up gene set [6]: 1.24
NES, Unfolded protein response gene set [6]: 1.41
NES, B cell (naïve) gene set [7]: 1.70
NES, CD4 T cell (naïve) gene set [7]: 1.93
NES, CD8 T cell gene set [7]: 2.31
NES, DC (activate) gene set [7]: 1.75
NES, Gamma delta T cell gene set [7]: 1.86
NES, Macrophage (M1) gene set [7]: 1.70
NES, Macrophage (M2) gene set [7]: 1.74
NES, Mast cell (active) gene set [7]: 1.50
NES, Mast cell (rest) gene set [7]: 1.71
NES, Memory B cell gene set [7]: 1.67
NES, Memory T cell (rest) gene set [7]: 2.25
NES, Monocyte gene set [7]: 1.50
NES, NK cell (rest) gene set [7]: 1.76
NES, Neutrophil gene set [7]: 1.42
NES, Plasma cell gene set [7]: 1.46
NES, Regulatory T cell gene set [7]: 1.99
NES, T follicular helper cell gene set [7]: 1.85
NES, FXR pathway gene set [8]: −1.04
NES, PPAR signaling gene set (first listed) [8]: −0.88
NES, PPAR signaling gene set (second listed) [8]: −1.00
NES, PPARα pathway gene set (first listed) [8]: −0.62
NES, PPARα pathway gene set (second listed) [8]: −0.77
NES, RAR/RXR pathway gene set [8]: −1.49
NES, RXR/VDR pathway gene set [8]: −1.71
NES, GW7647 (PPARa agonist) gene set (Fibrosis not improved, NASH patients, PPAR agonist on human primary hepatocytes (GSE53399)): −1.56
NES, GW501516 (PPARd agonist) gene set [9]: −0.92
NES, ROSIGLITAZONE (PPARg agonist) gene set [9]: −1.19
NES, WY14643 (PPARa agonist) gene set [9]: 1.17
NES, PDGFRB target gene signature (Fibrosis not improved, NASH patients, iLINCS): −0.79
modulation of RXR, RAR and FXR pathways (both responders and non-responders): no obvious induction
modulation of FPS genes (patients with histological fibrosis improvement): suppressed or unchanged
modulation of FPS genes (patients with no fibrosis improvement): generally induced
modulation of PPAR pathways (fibrosis responders after 1-year treatment, non-responders lack it): enrichment
modulation of E2F signaling (fibrosis responders only): most strikingly suppressed
PPAR α target gene signature (vs δ and γ agonist signatures) (transcriptional target gene signatures defined in mouse primary hepatocyte): dominantly induced
